For this experiment, the target named is Caspase-3 (Homo sapiens) (UniProt P42574). Briefly: caspase-3 inhibitors as off-family protease, SAR follow-up, selectivity assay for SENP protease inhibitor project, biochemical, luminescence, set 2 (AID 588599). Conditions: recombinant caspase-3, Z-DEVD-aminoluciferin luminescence, 60 min.

As a reminder, the IC50 is the concentration that inhibits the measured activity by half.

Caspase-3 (Homo sapiens), sequence (P42574 28-227 limits assumed): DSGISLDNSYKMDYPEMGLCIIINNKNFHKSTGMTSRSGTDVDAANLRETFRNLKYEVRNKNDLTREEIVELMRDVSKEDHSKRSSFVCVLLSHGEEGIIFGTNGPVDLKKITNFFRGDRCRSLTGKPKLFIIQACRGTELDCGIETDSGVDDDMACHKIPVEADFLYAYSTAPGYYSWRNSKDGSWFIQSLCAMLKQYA

Consider `Cc1cccc(-c2noc(/C=C/c3ccccc3)n2)c1`, for which the half-maximal inhibitory concentration (IC50) is 10.6 µM.
As for `O=C(Nc1nc2ccccc2s1)c1cc2ccccc2s1`, the figure is 0.515 µM; as for `CCCCc1ccc2nc(NC(=O)c3sccc3Cl)sc2c1`, 1.11 µM; as for `Fc1ccc(/C=C/c2noc(-c3ccccc3I)n2)cc1`, 23.9 µM.
